Measured values published in patent US4496551A (priority 1983, dated 1985).

Tests used:
Type in all cases: in vivo
Cercospora arachidicola = experiment: peanut early leafspot control on peanut seedlings; conditions: for pest or weed control at 100 ppm: Mycosphaerella arachidis, 336 h
Method: Compounds of the previous examples were again dissolved in acetone in an amount equal to 6% of the final volume and then suspended at a concentration of 100 ppm in purified water containing 250 ppm of the surfactant TREM 014 (polyhydric alcohol esters). This suspension was sprayed to the point of run-off on peanut seedlings. The following day, the plants were inoculated with a spore suspension of Cercospora arachidicola, causal agent of peanut early leafspot, and incubated in a saturated humidity chamber at 27° for 24 hours and then in a growth room for an additional 14 days, when disease ratings were made. Treated plants from successful treatments had few or no leafspots while the untreated plants had numerous leafspots on each leaf.

Erysiphe cichoracearum = experiment: cucumber powdery mildew control on cucumber seedlings; conditions: 7 days; for pest or weed control at 100 ppm: Golovinomyces cichoracearum, 168 h
Method: Compounds of the previous examples were again dissolved in acetone in an amount equal to 6% of the final volume and then suspended at a concentration of 100 ppm in purified water containing 250 ppm of the surfactant TREM 014 (polyhydric alcohol esters). This suspension was sprayed to the point of run-off on cucumber seedlings. The following day, the plants were inoculated with a spore suspension of the fungus Erysiphe cichoracearum, causal agent of cucumber powdery mildew, and incubated in a growth room for 7 days. Disease ratings were then made. Treated plants from successful treatments had little or no powdery mildew in contrast to untreated plants which were covered with powdery mildew.

Phytophthora infestans = experiment: whole plant or invertebrate; conditions: for pest or weed control at 100 ppm: Phytophthora infestans, in Solanum lycopersicum, 168 h, read-out: % Control of Tomato Late Blight
[1] = system: Puccinia recondita var. tritici; experiment: wheat leaf rust control on wheat seedlings; conditions: 100 ppm, sprayed day before inoculation
Method: (§1) Compounds of this invention were dissolved in acetone in an amount equal to 6% of the final volume and then suspended at a concentration of 100 ppm in purified water containing 250 ppm of the surfactant TREM 014 (polyhydric alcohol esters). This suspension was sprayed to the point of run-off on wheat seedlings. The following day, the plants were inoculated with a spore suspension of Puccinia recondita var. tritici, causal agent of wheat leaf rust, and incubated in a saturated humidity chamber at 20° for 24 hours and then in a growth room for an additional 7 days, when disease ratings were made. Treated plants from successful treatments had few or no rust pustules while the untreated plants had numerous rust pustules on each leaf.

Venturia inaequalis = experiment: apple scab control on apple seedlings; conditions: 100 ppm; for pest or weed control at 100 ppm: Venturia inaequalis
Method: as §1, with “apple” for “wheat”, “the fungus Venturia inaequalis,” for “Puccinia recondita var. tritici,”, “apple scab,” for “wheat leaf rust,”, “10-12 days.” for “7 days, when disease ratings were made.”, “apple scab lesions when compared to” for “rust pustules while the”, “which were covered with scab lesions.” for “had numerous rust pustules on each leaf.”

Helminthosporium maydis = experiment: southern corn leaf blight control on corn seedlings; conditions: for pest or weed control at 100 ppm: Bipolaris maydis, 168 h
Method: Compounds of the previous example were again dissolved in acetone in an amount equal to 6% of the final volume and then suspended at a concentration of 100 ppm in purified water containing 250 ppm of the surfactant TREM 014 (polyhydric alcohol esters). This suspension was sprayed to the point of run-off on corn seedlings. The following day, the plants were inoculated with a spore suspension of Helminthosporium maydis, causal agent of southern corn leaf blight, and incubated in a saturated humidity chamber at 20° for 24 hours and then in a growth room for an additional 7 days, when disease ratings were made. Treated plants from successful treatments had few lesions while the untreated plants had numerous lesions on each leaf.

Rhizoctonia solani = experiment: rice sheath blight control on rice seedlings; conditions: 7 days; for pest or weed control at 100 ppm: Rhizoctonia solani, 168 h
Method: Several compounds of the previous examples were again dissolved in acetone in an amount equal to 6% of the final volume and then suspended at a concentration of 100 ppm in purified water containing 250 ppm of the surfactant TREM 014 (polyhydric alcohol esters). This suspension was sprayed to the point of run-off on rice seedlings. The following day, the plants were inoculated with a mixture of bran and the mycelium of Rhizoctonia solani, causal agent of sheath blight of rice, and incubated in a growth room for 7 days. Disease ratings were then made. Treated plants from successful treatments had little sheath blight in contrast to untreated plants which were covered with sheath blight.

Pyricularia oryzae = experiment: whole plant or invertebrate; conditions: 168 h, read-out: % Control of Rice Blast

Structure (SMILES)	% Control Peanut Early Leafspot (Cercospora arachidicola; 100 ppm) [%]	% Control Cucumber Powdery Mildew (Erysiphe cichoracearum; 100 ppm) [%]	% Control of Tomato Late Blight (Phytophthora infestans; 100 ppm) [%]	% Control Wheat Leaf Rust [1] [%]	% Control Apple Scab (Venturia inaequalis) [%]	% Control of Southern Corn Leaf Blight (Helminthosporium maydis; 100 ppm) [%]	% Control of Rice Sheath Blight (Rhizoctonia solani; 100 ppm) [%]	pest or weed control at 100 ppm (Cercospora arachidicola) [%]	pest or weed control at 100 ppm (Erysiphe cichoracearum) [%]	pest or weed control at 100 ppm (Pyricularia oryzae) [%]	pest or weed control at 100 ppm (Phytophthora infestans) [%]	pest or weed control at 100 ppm [1] [%]	pest or weed control at 100 ppm (Venturia inaequalis) [%]	pest or weed control at 100 ppm (Helminthosporium maydis) [%]	pest or weed control at 100 ppm (Rhizoctonia solani) [%]
C[Si](C)(Cn1ccnc1)c1ccc(-c2ccccc2)cc1.[Cl][Cu] [1:1 complex of (1,1'-Biphenyl-4-yl)dimethyl(1H-imidazol-1-ylmethyl)silane and Cuprous Chloride]	100	100	0	100	100	0	50	–	–	–	–	–	–	–	–
C[Si](C)(Cn1ccnc1)c1ccccc1-c1ccccc1 [(1,1'-Biphenyl-2-yl)dimethyl(1H-imidazol-1-ylmethyl)silane]	–	–	–	–	–	–	–	30	50	90	0	0	90	0	90
C[Si](C)(Cn1ccnc1)c1cccc(-c2ccccc2)c1 [(1,1'-Biphenyl-3-yl)dimethyl(1H-imidazol-1-ylmethyl)silane]	–	–	–	–	–	–	–	80	0	80	0	90	90	90	90
C[Si](Cn1ccnc1)(c1ccccc1)c1ccc(-c2ccccc2)cc1 (stereo not drawn) [(1,1'-Biphenyl-4-yl)(1H-imidazol-1-ylmethyl)methyl(phenyl)silane]	–	–	–	–	–	–	–	80	100	0	0	100	0	80	0
C[Si](Cn1ccnc1)(c1ccc(F)cc1)c1ccc(-c2ccccc2)cc1 (stereo not drawn) [(1,1'-Biphenyl-4-yl)(4-fluorophenyl)(1H-imidazol-1-ylmethyl)methylsilane]	–	–	–	–	–	–	–	100	100	–	0	80	50	70	0
CC(C)(C)O[Si](C)(Cn1ccnc1)c1ccccc1 (stereo not drawn) [(1,1-Dimethylethoxy)(1H-imidazol-1-ylmethyl)methyl(phenyl)silane]	–	–	–	–	–	–	–	0	100	0	0	0	0	0	0
COc1ccc([Si](C)(Cn2ccnc2)c2ccc(OC)cc2)cc1 [(1H-Imidazol-1-ylmethyl)[bis(4-methoxyphenyl)]methylsilane]	–	–	–	–	–	–	–	0	50	0	0	0	50	0	0
CC(C)O[Si](C)(Cn1ccnc1)c1ccccc1 (stereo not drawn) [(1H-Imidazol-1-ylmethyl)methyl(phenyl)(2-propoxy)silane]	–	–	–	–	–	–	–	0	90	0	0	0	0	0	0
CC(C)O[Si](Cn1ccnc1)(OC(C)C)c1ccccc1 [(1H-Imidazol-1-ylmethyl)phenylbis(2-propoxy)silane]	–	–	–	–	–	–	–	0	0	–	0	0	70	0	0
COc1cccc([Si](C)(C)Cn2ccnc2)c1OC [(2,3-Dimethoxyphenyl)(1H-imidazol-1-ylmethyl)dimethylsilane]	–	–	–	–	–	–	–	0	100	0	0	0	0	0	0
C[Si](Cn1ccnc1)(c1ccccc1)c1ccc(Cl)cc1Cl (stereo not drawn) [(2,4-Dichlorophenyl)(1H-imidazol-1-ylmethyl)methyl(phenyl)silane]	–	–	–	–	–	–	–	100	100	0	0	90	80	0	0
COc1cccc(OC)c1[Si](C)(C)Cn1ccnc1 [(2,6-Dimethoxyphenyl)dimethyl(1H-imidazol-1-ylmethyl)silane]	–	–	–	–	–	–	–	0	0	0	50	0	0	50	0
C[Si](Cn1ccnc1)(c1ccccc1)c1ccccc1Cl (stereo not drawn) [(2-Chlorophenyl)(1H-imidazol-1-ylmethyl)methyl(phenyl)silane]	–	–	–	–	–	–	–	100	100	0	0	0	100	0	0
C[Si](Cn1ccnc1)(c1ccc(Cl)cc1)c1ccccc1Cl (stereo not drawn) [(2-Chlorophenyl)(4-chlorophenyl)(1H-imidazol-1-ylmethyl)methylsilane]	–	–	–	–	–	–	–	80	100	–	0	100	80	0	0
C[Si](C)(Cn1ccnc1)c1cccc(Cl)c1 [(3-Chlorophenyl)dimethyl(1H-imidazol-1-ylmethyl)silane]	–	–	–	–	–	–	–	0	80	0	0	80	60	0	90
CC(n1ccnc1)[Si](C)(c1ccc(F)cc1)c1ccc(F)cc1 (stereo not drawn) [bis(4-Fluorophenyl)methyl[1-(1H-imidazol-1-yl)ethyl]silane]	–	–	–	–	–	–	–	0	100	0	0	0	100	–	90
